We go through 7 molecules from US7884120B2, “2,4,5-trisubstituted imidazoles and their use as anti-microbial agents” (Lorus Therapeutics Inc., priority 2002, dated 2011).

In brackets after ≈: the same amount, converted by molar mass. Where only a bound is given, the exact number is not on record here.

One test relates to Methicillin-Resistant Staphylococcus aureus (MRSA), CMRSA-1B. As to the kind of experiment: MIC by sequential macrodilution (tube) broth method against MRSA. The format is cell-based. More on the design: key: (+): Positive visual bacterial growth; (−): Negative visual bacterial growth. The following applies: Conc. 3.12 μg/ml, 37° C. overnight. Here is the method: (Nat. Committee for Clinical Laboratory Standards. Document M7-A5 2000, 20; 1-25). Bacterial suspensions containing 5×10^5 colony-forming units (CFU) were incubated with serial two-fold dilutions of each drug at 37° C. overnight, and growth was monitored visually. The range of MIC values among the triaryl-imidazole derivatives was 12.5-50 μg/ml.
Turning to `O=C(O)c1ccc(-c2nc(-c3ccc(Br)cc3)c(-c3ccccc3Br)[nH]2)cc1` [Compound 3], the visual bacterial growth entry is listed as “+”.

The test is the same for the next values; noted with them: Conc. 6.25 μg/ml, 37° C. overnight.
In the case of `O=C(O)c1ccc(-c2nc(-c3ccc(Br)cc3)c(-c3ccccc3Br)[nH]2)cc1` [Compound 3], the visual bacterial growth entry was “+”.

The same test, now with this note: Conc. 12.50 μg/ml, 37° C. overnight.
In the case of `O=C(O)c1ccc(-c2nc(-c3ccc(Br)cc3)c(-c3ccccc3Br)[nH]2)cc1` [Compound 3], the visual bacterial growth result is listed as “+”.

The same test, now with this note: Conc. 25.00 μg/ml, 37° C. overnight.
Turning to `O=C(O)c1ccc(-c2nc(-c3ccc(Br)cc3)c(-c3ccccc3Br)[nH]2)cc1` [Compound 3], the visual bacterial growth result is “−”.

The test is the same for the next values; noted with them: Conc. 50.00 μg/ml, 37° C. overnight.
Consider `O=C(O)c1ccc(-c2nc(-c3ccc(Br)cc3)c(-c3ccccc3Br)[nH]2)cc1` [Compound 3], for which the visual bacterial growth result was “−”.

Staying with this test, now noted: Conc. 100.00 μg/ml, 37° C. overnight.
Regarding `O=C(O)c1ccc(-c2nc(-c3ccc(Br)cc3)c(-c3ccccc3Br)[nH]2)cc1` [Compound 3], the visual bacterial growth result is recorded as “−”.

Another test relates to multi-drug resistant Staphylococcus aureus (CMRSA-1B). Put plainly: Bactericidal effect against MRSA (CFU plating on TSA). The following applies: overnight with compound, plated on TSA, CFU count (FIG. 1). The format is cell-based. As to the method:
Serial dilutions of liquid cultures were incubated with the compounds at 37° C. overnight and then plated on Tryptic Soy Agar (TSA) plates. After incubation for 17 hours at 37° C., the number of live bacteria was calculated from the number of colonies grown per milliliter of culture and expressed as colony-forming units (CFU).
For the molecule `O=C(O)c1ccc(-c2nc(-c3ccc(Br)cc3)c(-c3ccccc3Br)[nH]2)cc1` [Compound 3], the “bactericidal or bacteriostatic effect at the corresponding MIC” value is recorded as “bacteriostatic effect”.

A further test has as its system MRSA-1B387. Put plainly: In vivo inhibition of MRSA, acute infection in immunosuppressed CB17-SCID mice. Also on record: species or system Staphylococcus aureus. The settings on record: 5×10^6 MRSA-1B387 in 5% mucin, 50 mg/kg I.P. immediately and 3 hours after inoculation, 50 mg/kg. Here is the method: Triaryl-imidazole compounds were tested in vivo for antibacterial activity against MRSA in a model of acute infection using immunosuppressed mice. Suspensions of 400 μL containing 5×10^6 MRSA-1B387 bacteria in 5% mucin were injected into groups of 5-10 female, 8-14 weeks CB17-SCID mice. Under these conditions bacterial infection produced 80-100% lethality in less than 48 hours. Each group of inoculated mice was treated with 50 mg/kg of the respective compound intraperitoneally (I.P.) immediately and 3 hours after bacterial inoculation.
`O=C(O)c1ccc(-c2nc(-c3ccc(Br)cc3)c(-c3ccccc3Br)[nH]2)cc1` [Compound 3]: the “Survival (%)” value amounted to 15%.

Another test concerns S. aureus, MRSA 1A-218, 1A-318, 1B-374, 1B-315, 1B-185, 1B387 and MSSA ATCC-6538, ATCC-29213. As to the kind of experiment: MIC by standard microdilution method against S. aureus (MRSA and MSSA strains). The format is cell-based. The following applies: Staphylococcus aureus, 24 h. As to the method: A standard microdilution method (NCCLS, 2000; Document M7-A5) was used to determine the minimum inhibitory concentrations (MICs) against S. aureus, methicillin-resistant strains (MRSA); 1A-218, 1A-318, 1B-374, 1B-315, 1B-185, 1B387 (Simor et al. 1999 Can Commun Dis Rep; 25:105-108) and methicillin-sensitive strains (MSSA); ATCC-6538 and ATCC-29213. The MICs of some compounds were also determined against other Gram-positive bacteria: Enterococcus faecium (ATCC 51559), Enterococcus faecalis (ATCC-51299, ATCC-29212) and Staphylococcus epidermidis (ATCC-35983).
Mueller-Hinton broth (MHB) is recommended as the medium of choice for susceptibility testing of commonly isolated, rapidly growing aerobic organisms such as the Gram-positive bacteria included in this study. A “cation-adjusted Mueller-Hinton broth” (Ca-MHB) was prepared by first preparing standard MHB from a dehydrated base as recommended by the manufacturer.
Single colonies from fresh agar plates of the different bacterial cultures were sub-cultured overnight in 3 ml of Tryptic soy broth (TSB) at 37° C. with shaking at 250 RPM. After 18-20 hours of incubation, the absorbance at λ=600 nm (OD600) were determined for each culture and adjusted to a final OD600=0.1 (4.2×10^7 cfu/ml). Bacterial suspensions were then diluted 1:200 in sterile Ca-MHB for the in vitro susceptibility test, with each well of the microtitre plate containing approximately 2×10^5 cfu/ml.
Stock solutions of the different test compounds were prepared at concentrations of 1,280 μg/ml, 640 μg/ml, or 320 μg/ml in 50% DMSO (dimethyl sulfoxide). Serial two-fold dilutions were then prepared in 50% DMSO (the working concentrations were 1:10 of the stock concentrations in 100 μl culture suspensions). The filled microtitre plates were sealed in plastic bags and incubated at 35° C. for 24 hr in an ambient air incubator with shaking at 250 RPM. MIC values were determined as the lowest concentration where complete inhibition of the visible bacterial growth was observed by the unaided eye and confirmed by the measurement of the optical density (OD600).
A word on the MIC: it is the smallest concentration in the dilution series that meets the test's criterion for growth inhibition. `Cc1[nH]c2ccccc2c1-c1nc2c3ccccc3c3ccccc3c2[nH]1` [Compound 44] gave a minimal inhibitory concentration (MIC) of 8 µg/mL (≈ 23 µM).

Molecule `c1ccc2c(-c3nc4c5ccccc5c5ccccc5c4[nH]3)c[nH]c2c1` [Compound 46] returned an MIC of 4 µg/mL (≈ 12 µM).

Still in this test, the particulars now being: Staphylococcus aureus; against all 8 strains of S. aureus tested except where indicated; microdilution, Ca-MHB, 35° C., 24 hr; read-out: MIC.
In the case of `Clc1ccc(-c2[nH]c(-c3c[nH]c4ccc(Br)cc34)nc2-c2ccccc2)cc1` [Compound 32], the MIC was 8 µg/mL (≈ 17.8 µM).

With `O=[N+]([O-])c1ccc(-c2[nH]c(-c3c[nH]c4ccc(Br)cc34)nc2-c2ccccc2)cc1` [Compound 34], the MIC is over 128 µg/mL.

For the molecule `Cc1[nH]c2ccccc2c1-c1nc(-c2ccccc2)c(-c2ccc([N+](=O)[O-])cc2)[nH]1` [Compound 33], the MIC fell in the range of 4 to 8 µg/mL (≈ 10.1 to 20.3 µM).

On to `Cc1[nH]c2ccccc2c1-c1nc(-c2ccccc2)c(-c2ccc(Br)cc2)[nH]1` [Compound 42], for which the minimum inhibitory concentration (MIC) amounted to 4 µg/mL (≈ 9.34 µM).

A further test concerns MRSA 1B-387. As to the kind of experiment: In vivo anti-bacterial activity, ICR mice inoculated I.P. with MRSA, oral treatment. The following applies: Staphylococcus aureus. Here is the method:
For in vivo studies, groups of 5-10 female ICR mice (6-7 weeks) were inoculated intraperitonially with 3-8×10^7 CFU MRSA 1B-387 per mouse in 400 μl of 5% mucin. The test compounds at concentrations of 50 or 100 mg/kg were administered orally immediately after the bacterial inoculation and again 3 hours later. The selected dosages were administered twice daily throughout the experiment. The efficacy of the treatment was evaluated by comparison of mortality between the experimental and control groups (Table 5).
In the case of `Clc1ccc(-c2[nH]c(-c3c[nH]c4ccc(Br)cc34)nc2-c2ccccc2)cc1` [Compound 32], the responders at 100 mg/kg was 40%.

On to `Cc1[nH]c2ccccc2c1-c1nc2c3ccccc3c3ccccc3c2[nH]1` [Compound 44], for which the responders at 100 mg/kg is 60%.

`O=[N+]([O-])c1ccc(-c2[nH]c(-c3c[nH]c4ccc(Br)cc34)nc2-c2ccccc2)cc1` [Compound 34] showed a responders at 100 mg/kg of 100%.

On to `Cc1[nH]c2ccccc2c1-c1nc(-c2ccccc2)c(-c2ccc([N+](=O)[O-])cc2)[nH]1` [Compound 33], for which the responders at 100 mg/kg is 0%.

As to `c1ccc2c(-c3nc4c5ccccc5c5ccccc5c4[nH]3)c[nH]c2c1` [Compound 46], the responders at 100 mg/kg is 40%.

`Cc1[nH]c2ccccc2c1-c1nc(-c2ccccc2)c(-c2ccc(Br)cc2)[nH]1` [Compound 42]: the responders at 100 mg/kg is 0%.

The test is the same for the next values; noted with them: Staphylococcus aureus, read-out: Survival %.
For `Clc1ccc(-c2[nH]c(-c3c[nH]c4ccc(Br)cc34)nc2-c2ccccc2)cc1` [Compound 32], the responders at 100 mg/kg is 40%.

With `Cc1[nH]c2ccccc2c1-c1nc2c3ccccc3c3ccccc3c2[nH]1` [Compound 44], the responders at 100 mg/kg was 60%.

For `O=[N+]([O-])c1ccc(-c2[nH]c(-c3c[nH]c4ccc(Br)cc34)nc2-c2ccccc2)cc1` [Compound 34], the responders at 100 mg/kg was determined as 100%.

`Cc1[nH]c2ccccc2c1-c1nc(-c2ccccc2)c(-c2ccc([N+](=O)[O-])cc2)[nH]1` [Compound 33]: the responders at 100 mg/kg was 0%.

Regarding `c1ccc2c(-c3nc4c5ccccc5c5ccccc5c4[nH]3)c[nH]c2c1` [Compound 46], the responders at 100 mg/kg is 40%.

Take `Cc1[nH]c2ccccc2c1-c1nc(-c2ccccc2)c(-c2ccc(Br)cc2)[nH]1` [Compound 42]: the responders at 100 mg/kg worked out at 0%.

The next test concerns Candida albicans (ATCC 24433). Put plainly: In vitro anti-fungal activity, microdilution against Candida albicans. The test is classed as cell-based. The settings on record: ATCC24433, 24 h, read-out: Inhibition (%) after 24 h. As to the method: A microdilution method was used to determine the anti-fungal activity of different test compounds against Candida albicans (ATCC 24433) at 25 μg/ml. RPMI-1640 broth is recommended as the medium of choice for susceptibility testing of C. albicans (NCCLS, 2002; Document M27-A2) and was used in this study. The broth was buffered to pH 7.0 and then sterilized using a 250 ml vacuum driven disposable 0.45 um filtration system.
C. albicans was sub-cultured from a −80° C. stock onto Sabouraud dextrose agar and incubated for 24-48 hrs at 37° C. The fungi inoculum was prepared by picking five colonies of ˜1 mm in diameter from 24-48 hr old cultures. The colonies were then suspended in 5 ml of sterile normal saline (8.5 g/L NaCl; 0.85% saline) diluted 1:50 and further diluted 1:20 with medium to obtain two-fold inoculum (1-5×10^3 cfu/ml). […] The microtitre plates were then sealed in plastic bags and incubated at 35° C. for 24-48 hrs in an ambient air incubator with shaking at 250 RPM.
Inhibition of visible growth of C. albicans in the microtitre plate wells was assessed by the unaided eye and confirmed by OD600 reading. […] The MIC values of compounds with significant activity are also included.
Background: Broth dilution looks for growth in wells or tubes with falling amounts of substance.
Broadly, the inhibition is the percentage by which the read-out fell short of the control. For `Cc1[nH]c2ccccc2c1-c1nc2c3ccccc3c3ccccc3c2[nH]1` [Compound 44], the inhibition at 25 µg/mL was found to be 0%.

With `c1ccc2c(-c3nc4c5ccccc5c5ccccc5c4[nH]3)c[nH]c2c1` [Compound 46], the inhibition at 25 µg/mL was found to be 33%.

The test is the same for the next values; noted with them: ATCC24433, 48 h, read-out: Inhibition (%) after 48 h.
As to `Cc1[nH]c2ccccc2c1-c1nc2c3ccccc3c3ccccc3c2[nH]1` [Compound 44], the inhibition at 25 µg/mL came out at 0%.

For the molecule `c1ccc2c(-c3nc4c5ccccc5c5ccccc5c4[nH]3)c[nH]c2c1` [Compound 46], the inhibition at 25 µg/mL amounted to 0%.

The test is the same for the next values; noted with them: ATCC24433, C. albicans ATCC 24433.
`Clc1ccc(-c2[nH]c(-c3c[nH]c4ccc(Br)cc34)nc2-c2ccccc2)cc1` [Compound 32] returned an MIC of 8 µg/mL (≈ 17.8 µM).

Still in this test, the particulars now being: ATCC24433, C. albicans ATCC 24433, compound 25 μg/ml, 24 h, read-out: Inhibition (%) after 24 h.
`Clc1ccc(-c2[nH]c(-c3c[nH]c4ccc(Br)cc34)nc2-c2ccccc2)cc1` [Compound 32]: the inhibition at 25 µg/mL was determined as 93%.

On to `O=[N+]([O-])c1ccc(-c2[nH]c(-c3c[nH]c4ccc(Br)cc34)nc2-c2ccccc2)cc1` [Compound 34], for which the inhibition at 25 µg/mL came to 0%.

For the molecule `Cc1[nH]c2ccccc2c1-c1nc(-c2ccccc2)c(-c2ccc([N+](=O)[O-])cc2)[nH]1` [Compound 33], the inhibition at 25 µg/mL amounted to 0%.

In the case of `Cc1[nH]c2ccccc2c1-c1nc(-c2ccccc2)c(-c2ccc(Br)cc2)[nH]1` [Compound 42], the inhibition at 25 µg/mL was 77%.

The same test, now with this note: ATCC24433, C. albicans ATCC 24433, compound 25 μg/ml, 48 h, read-out: Inhibition (%) after 48 h.
Turning to `Clc1ccc(-c2[nH]c(-c3c[nH]c4ccc(Br)cc34)nc2-c2ccccc2)cc1` [Compound 32], the inhibition at 25 µg/mL was 100%.

In the case of `O=[N+]([O-])c1ccc(-c2[nH]c(-c3c[nH]c4ccc(Br)cc34)nc2-c2ccccc2)cc1` [Compound 34], the inhibition at 25 µg/mL is 0%.

Regarding `Cc1[nH]c2ccccc2c1-c1nc(-c2ccccc2)c(-c2ccc([N+](=O)[O-])cc2)[nH]1` [Compound 33], the inhibition at 25 µg/mL was 0%.

Turning to `Cc1[nH]c2ccccc2c1-c1nc(-c2ccccc2)c(-c2ccc(Br)cc2)[nH]1` [Compound 42], the inhibition at 25 µg/mL was 43%.
